Our source for the IC50, Activity and inhibition values is ChEMBL document CHEMBL2163346, “Acetylcholinesterase inhibitors from the leaves of Macaranga kurzii” (J Nat Prod, 2012).

One test deals with Acetylcholinesterase (Electrophorus electricus, UniProt O42275).
In test [1] the test system is KB. Kind of test: Cytotoxicity against human KB cells after 72 hrs by neutral red staining. It counts as functional, cell-based.
Test [2] concerns KB. Briefly: Cytotoxicity against human KB cells at 20 uM after 72 hrs by neutral red staining. It counts as functional, cell-based.
In test [3] the target is Acetylcholinesterase (Electrophorus electricus) (UniProt O42275). Conditions: C2888, 50 uM.
Acetylcholinesterase (Electrophorus electricus), sequence (O42275 24-633 limits assumed): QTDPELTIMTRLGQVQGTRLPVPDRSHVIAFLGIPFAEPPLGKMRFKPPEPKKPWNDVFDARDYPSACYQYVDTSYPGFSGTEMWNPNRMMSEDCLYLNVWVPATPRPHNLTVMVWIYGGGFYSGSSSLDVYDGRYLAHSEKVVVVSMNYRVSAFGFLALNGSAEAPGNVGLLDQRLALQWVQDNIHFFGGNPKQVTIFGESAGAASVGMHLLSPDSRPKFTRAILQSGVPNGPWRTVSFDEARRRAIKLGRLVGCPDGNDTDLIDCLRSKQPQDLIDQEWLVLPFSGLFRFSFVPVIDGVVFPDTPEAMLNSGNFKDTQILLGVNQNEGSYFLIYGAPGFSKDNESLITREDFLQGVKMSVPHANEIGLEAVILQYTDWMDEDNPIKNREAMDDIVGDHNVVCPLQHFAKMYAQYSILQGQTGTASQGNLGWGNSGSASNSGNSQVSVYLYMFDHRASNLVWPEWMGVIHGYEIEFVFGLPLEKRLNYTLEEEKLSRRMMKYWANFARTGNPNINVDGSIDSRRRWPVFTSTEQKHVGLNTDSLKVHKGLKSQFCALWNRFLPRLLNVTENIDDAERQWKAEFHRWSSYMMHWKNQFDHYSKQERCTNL
Description: Inhibition of Electrophorus electricus C2888 AChE using acetylthiocholine iodide as substrate at 50 uM by Ellman's spectroscopic method

Activity calls are given as the source filed them. The rule behind the calls is not given here.

Acetylcholinesterase, sequence (O42275 whole entry): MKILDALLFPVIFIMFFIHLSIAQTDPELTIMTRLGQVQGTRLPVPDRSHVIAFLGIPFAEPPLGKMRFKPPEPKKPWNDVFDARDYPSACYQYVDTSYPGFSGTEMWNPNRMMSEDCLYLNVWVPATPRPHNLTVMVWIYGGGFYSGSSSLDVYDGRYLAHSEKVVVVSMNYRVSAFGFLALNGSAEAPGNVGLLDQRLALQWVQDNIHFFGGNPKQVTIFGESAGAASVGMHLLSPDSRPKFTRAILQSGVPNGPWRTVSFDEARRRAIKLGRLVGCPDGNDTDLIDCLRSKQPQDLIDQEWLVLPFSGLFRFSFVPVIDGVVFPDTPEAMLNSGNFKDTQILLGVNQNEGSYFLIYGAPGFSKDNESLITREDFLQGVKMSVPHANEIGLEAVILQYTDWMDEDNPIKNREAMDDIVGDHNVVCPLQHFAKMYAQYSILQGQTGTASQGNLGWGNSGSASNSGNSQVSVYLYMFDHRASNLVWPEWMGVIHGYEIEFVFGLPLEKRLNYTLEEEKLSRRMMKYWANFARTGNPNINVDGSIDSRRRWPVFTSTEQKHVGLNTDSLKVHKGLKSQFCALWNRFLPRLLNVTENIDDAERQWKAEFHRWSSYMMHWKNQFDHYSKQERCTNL

Broadly, the IC50 is the concentration that gives 50% inhibition. As to `COc1cc(/C=C/c2ccccc2)c(CC=C(C)C)c(OC)c1`, the IC50 against Acetylcholinesterase was 19 µM; with KB [1] it was 4 µM.

Compound `CC(C)=CCc1c(O)cc2c(c1O)C(=O)C[C@@H](c1ccccc1)O2` returned an IC50 against Acetylcholinesterase of 18 µM. Further, the result in the test with KB [2] was inactive. For `Oc1cc(/C=C/c2ccccc2)c2ccoc2c1` [FURANOKURZIN] the same measures were 42 µM and “inactive”. For the compound `COc1cc(/C=C/c2ccccc2)cc(OC)c1` [3,5-O-DIMETHYLPINOSYLVIN], on Acetylcholinesterase, the IC50 was 9 µM. The result with KB [2] was inactive. Regarding `CC1(C)Oc2cc3oc(-c4ccccc4)c(O)c(=O)c3c(O)c2CC1O` (racemic), in the test with KB [1], 13 µM corresponded to half-maximal inhibition (IC50). Consider `CC1(C)C=Cc2c(cc3oc(-c4ccccc4)c(O)c(=O)c3c2O)O1` [MACAKURZIN C], for which the inhibition entry in test [3] was “inactive”. The same compound showed an IC50 on Acetylcholinesterase of 20 µM. Moreover, the outcome in the test with KB [2] was inactive.

With `COc1cc(O)c2c(=O)c(O)c(-c3ccccc3)oc2c1`, in the test with KB [2], the outcome was inactive. Same read-out and setting: to `CC(C)=CCc1c(O)cc(O)c2c(=O)c(O)c(-c3ccccc3)oc12` belongs “inactive”. Regarding `CC(C)=CCc1c(O)cc(O)c2c1O[C@H](c1ccccc1)CC2=O` [GLABRANIN], at Acetylcholinesterase, the IC50 is 23 µM. The result with KB [2] was inactive. As for `O=c1c(O)c(-c2ccccc2)oc2cc(O)cc(O)c12`, the result with KB [2] was inactive. For the compound `CC(C)=CCc1c(O)cc2oc(-c3ccccc3)c(O)c(=O)c2c1O`, in the test on KB [1], half-maximal inhibition (IC50) was put at 10 µM.

On to `C=C(C)C(O)Cc1c(O)cc2oc(-c3ccccc3)c(O)c(=O)c2c1O` (racemic), for which the result in the test with KB [2] was inactive. In the case of `COc1cc(/C=C\c2ccccc2)cc(OC)c1`, the outcome in the test with KB [2] was inactive.
